Laboratory results as given in ChEMBL document CHEMBL1201862, “PubChem BioAssay data set” (2004).
The source made the active and inactive calls.

How the values were obtained:
cells [1] = format: functional
[2] = microbe, parasite or virus in culture; format: functional; details: Mycobacterium tuberculosis
[3] = THP-1 cell cytotoxicity, dose response, cytotoxicity control for non-replicating M. tuberculosis project (AID 489025); format: functional
[4] = Vero E6 cell cytotoxicity, dose response, cytotoxicity control for non-replicating M. tuberculosis project, secondary assay (AID 492998); format: functional, VeroE6; details: Vero C1008
[5] = inhibitors of SNCA 5'UTR-driven reporter translation, confirmation, H4 neuroglioma cells, luminescence (AID 1988); format: functional, cell-based
[6] = molecular target: Luciferin 4-monooxygenase (Photinus pyralis, UniProt P08659); assay: Counter Screen for Luciferase-based Assay Positives. [Related pubchem assays: 620, 618, 411 ]
Sequence of Luciferin 4-monooxygenase (P08659 whole entry): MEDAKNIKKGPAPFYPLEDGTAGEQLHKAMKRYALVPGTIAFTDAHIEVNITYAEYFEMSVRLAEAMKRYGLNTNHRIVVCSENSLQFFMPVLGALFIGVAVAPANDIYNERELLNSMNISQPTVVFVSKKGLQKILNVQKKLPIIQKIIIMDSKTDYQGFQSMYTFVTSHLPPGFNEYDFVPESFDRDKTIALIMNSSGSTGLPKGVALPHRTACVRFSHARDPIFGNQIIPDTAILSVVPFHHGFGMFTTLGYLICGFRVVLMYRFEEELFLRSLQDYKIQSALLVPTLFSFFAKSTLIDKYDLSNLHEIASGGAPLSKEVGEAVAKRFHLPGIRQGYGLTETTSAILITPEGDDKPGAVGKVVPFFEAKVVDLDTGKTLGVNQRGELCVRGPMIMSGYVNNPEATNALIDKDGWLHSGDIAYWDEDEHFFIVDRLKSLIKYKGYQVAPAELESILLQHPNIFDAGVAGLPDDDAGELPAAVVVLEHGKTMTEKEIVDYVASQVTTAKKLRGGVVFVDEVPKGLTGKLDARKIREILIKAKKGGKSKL

BJ [7] = assay: cytotoxicity toward BJ-TERT fibroblasts, dose response, cell-based, RAS-independent, luminescence (AID 1933); format: functional; details: Homo sapiens
BJ [8] = assay: cytotoxicity toward BJ-TERT-LT-ST fibroblasts, dose response, cell-based, RAS-independent, luminescence (AID 1935); format: functional; details: Homo sapiens;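 also: BJ fibroblasts immortalized with TERT plus LT and ST oncogenes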
[9] = inhibitors of firefly luciferase expression or activity, dose response, H4 neuroglioma cells, luminescence (AID 1990); format: functional, cell-based
HT-1080 = assay: cytotoxicity in HT1080 fibrosarcoma cells, cell-based, fluorescence readout (AID 620); format: functional; details: Homo sapiens
[10] = cytotoxicity toward DRD oncogenic fibroblasts, dose response, cell-based, non-viral oncogenic, luminescence (AID 1934); format: functional; details: Homo sapiens
BJ [11] = assay: cells; format: functional, cell-based; details: Homo sapiens
[12] = molecular target: Glyceraldehyde-3-phosphate dehydrogenase (Homo sapiens, UniProt P04406)
Sequence of Glyceraldehyde-3-phosphate dehydrogenase (P04406 whole entry): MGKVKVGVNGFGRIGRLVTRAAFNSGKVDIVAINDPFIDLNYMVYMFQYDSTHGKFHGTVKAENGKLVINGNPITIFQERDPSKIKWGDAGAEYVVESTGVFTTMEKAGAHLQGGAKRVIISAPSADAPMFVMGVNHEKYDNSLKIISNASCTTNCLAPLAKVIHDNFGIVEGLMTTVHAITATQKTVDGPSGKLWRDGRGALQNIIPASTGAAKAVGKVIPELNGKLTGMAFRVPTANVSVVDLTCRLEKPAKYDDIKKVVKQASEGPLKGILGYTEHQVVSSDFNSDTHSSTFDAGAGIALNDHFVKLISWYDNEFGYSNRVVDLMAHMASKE

[13] = Luminescence Cell-Based Dose Response HTS to Identify Inhibitors of 5'UTR Stem-Loop Driven Prion Protein mRNA Translation in H4 Neuroglioblastoma Cells. [Related pubchem assays: 1827 (Project Summary), 1813 (Primary HTS)]; format: functional
[14] = molecular target: T1, Trace amine-associated receptor 1 (Homo sapiens, UniProt Q96RJ0); assay: Fluorescence-based cell-based high throughput dose response assay to identify agonists of the human trace amine associated receptor 1 (TAAR1).; format: functional
T1 sequence (Q96RJ0 whole entry): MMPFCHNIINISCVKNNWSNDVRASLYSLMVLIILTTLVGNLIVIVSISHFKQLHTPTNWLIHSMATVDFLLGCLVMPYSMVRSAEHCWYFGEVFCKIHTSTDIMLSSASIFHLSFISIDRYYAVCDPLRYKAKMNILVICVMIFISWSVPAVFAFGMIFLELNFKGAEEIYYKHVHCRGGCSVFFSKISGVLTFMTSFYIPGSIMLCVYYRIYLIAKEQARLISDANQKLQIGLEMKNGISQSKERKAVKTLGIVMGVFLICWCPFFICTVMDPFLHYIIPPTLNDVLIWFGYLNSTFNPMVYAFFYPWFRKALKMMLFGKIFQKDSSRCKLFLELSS

cells [15] = format: functional, cell-based
cells [16] = format: functional, cell-based; remark: listed apart in the source
[17] = molecular target: T1, Trace amine-associated receptor 1; assay: Counterscreen for agonists of the human trace amine associated receptor 1 (hTAAR1): Fluorescence-based cell-based high throughput dose response assay to identify hTAAR1 agonist that also desensitize TAAR1 receptor response.; format: functional
Leucine aminopeptidase = molecular target: T2, Leucine aminopeptidase (Plasmodium falciparum 3D7, UniProt Q8IL11); assay: P. falciparum M17LAP inhibitors, primary screen, biochemical, fluorogenic H-Leu-NHMec substrate, 1536-well (AID 1619); format: functional
T2 sequence (Q8IL11 whole entry): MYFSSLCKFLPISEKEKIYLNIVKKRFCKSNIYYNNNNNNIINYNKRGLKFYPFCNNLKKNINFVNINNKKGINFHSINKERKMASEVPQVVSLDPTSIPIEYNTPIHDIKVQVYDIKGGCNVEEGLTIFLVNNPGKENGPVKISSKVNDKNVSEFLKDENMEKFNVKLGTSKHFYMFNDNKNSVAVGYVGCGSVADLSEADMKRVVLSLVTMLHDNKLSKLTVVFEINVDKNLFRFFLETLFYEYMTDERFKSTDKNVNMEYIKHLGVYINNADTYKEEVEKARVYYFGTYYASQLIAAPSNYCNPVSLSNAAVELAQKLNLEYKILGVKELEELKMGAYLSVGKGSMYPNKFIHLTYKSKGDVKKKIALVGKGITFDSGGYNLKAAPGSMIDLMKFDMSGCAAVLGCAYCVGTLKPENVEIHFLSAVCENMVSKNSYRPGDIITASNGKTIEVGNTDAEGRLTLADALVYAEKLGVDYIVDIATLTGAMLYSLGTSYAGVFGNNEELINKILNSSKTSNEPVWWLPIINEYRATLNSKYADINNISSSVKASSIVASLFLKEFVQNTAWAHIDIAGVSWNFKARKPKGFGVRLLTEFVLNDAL

Procathepsin L = Procathepsin L (Homo sapiens, UniProt P07711); assay: cathepsin L inhibitors, dose response, counter-screen for M1/M17 aminopeptidase inhibitor project, biochemical, QFRET, 1536-well (AID 2214)
Sequence of Procathepsin L (P07711 whole entry): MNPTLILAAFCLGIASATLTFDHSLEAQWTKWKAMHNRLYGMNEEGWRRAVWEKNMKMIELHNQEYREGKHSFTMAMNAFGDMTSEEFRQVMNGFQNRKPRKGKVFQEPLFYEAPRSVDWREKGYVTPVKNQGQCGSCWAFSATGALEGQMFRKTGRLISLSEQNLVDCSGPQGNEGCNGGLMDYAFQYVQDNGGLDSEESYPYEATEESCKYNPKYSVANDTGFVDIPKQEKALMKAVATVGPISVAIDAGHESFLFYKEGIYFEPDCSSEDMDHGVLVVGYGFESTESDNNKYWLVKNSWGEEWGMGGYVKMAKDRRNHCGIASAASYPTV

Aspartyl aminopeptidase = molecular target: T3, Aspartyl aminopeptidase (Plasmodium falciparum 3D7, UniProt Q8I2J3); assay: Counterscreen for inhibitors of M1 and M17 aminopeptidases: QFRET-based biochemical high throughput dose response assay for inhibitors of the Plasmodium falciparum M18 Aspartyl Aminopeptidase (PFM18AAP). [Related PubChem assays: 1619 (Screening assay (M17LAP inhibitors).), 1445 (Screening assay (M1AAP inhibitors).)]
T3 sequence (Q8I2J3 whole entry): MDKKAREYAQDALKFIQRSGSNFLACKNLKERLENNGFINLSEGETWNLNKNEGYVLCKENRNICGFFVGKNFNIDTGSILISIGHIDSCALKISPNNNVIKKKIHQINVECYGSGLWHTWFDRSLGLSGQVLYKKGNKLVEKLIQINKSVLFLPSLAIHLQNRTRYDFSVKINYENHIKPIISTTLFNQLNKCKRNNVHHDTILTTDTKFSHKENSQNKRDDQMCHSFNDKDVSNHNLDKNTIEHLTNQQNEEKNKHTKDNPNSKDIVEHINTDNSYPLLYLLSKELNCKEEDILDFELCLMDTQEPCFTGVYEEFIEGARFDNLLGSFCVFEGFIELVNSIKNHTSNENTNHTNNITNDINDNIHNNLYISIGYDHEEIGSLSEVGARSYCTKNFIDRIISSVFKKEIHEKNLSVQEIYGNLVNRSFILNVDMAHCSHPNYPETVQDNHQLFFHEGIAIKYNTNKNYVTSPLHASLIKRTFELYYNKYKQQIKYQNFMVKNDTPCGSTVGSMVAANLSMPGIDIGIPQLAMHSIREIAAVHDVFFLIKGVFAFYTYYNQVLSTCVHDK

[18] = cytotoxicity in HPDE-C7 cells, cell-based, fluorescence, HTS (AID 430); format: functional; details: Homo sapiens
[19] = cytotoxicity in KRAS-transformed pancreatic duct cells, primary screen, cell-based, fluorescence, HTS (AID 431); format: functional; details: Homo sapiens;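 also: cell line used: HPDE-C7K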
X-box-binding protein 1 = molecular target: T4, X-box-binding protein 1 (Homo sapiens, UniProt P17861); format: functional, Cricetulus griseus;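 also: confirmatory dose-response counter-screen serving a CHOP assay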
T4 sequence (P17861 whole entry): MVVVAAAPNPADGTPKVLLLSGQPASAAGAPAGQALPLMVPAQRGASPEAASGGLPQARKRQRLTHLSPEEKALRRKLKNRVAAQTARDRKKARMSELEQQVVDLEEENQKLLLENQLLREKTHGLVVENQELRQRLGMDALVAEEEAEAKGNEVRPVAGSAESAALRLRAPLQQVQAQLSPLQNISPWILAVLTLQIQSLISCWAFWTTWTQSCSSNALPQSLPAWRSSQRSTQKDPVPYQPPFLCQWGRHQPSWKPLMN

For O=C(Nc1ncc(Cc2ccccc2Cl)s1)C1=NCCN1, the IC50 (cells [1]) was 4.03 µM (active), the CC50 [2] was > 40 µM (active) and the CC50 [3] was > 40 µM (active). For the same molecule, the CC50 [4] was > 20 µM (active).
With O=C(CSc1nnc(-c2ccccc2)o1)Nc1ccccc1F the EC50 [5] was 1.21 µM (active), the EC50 [6] was 2.93 µM (active) and the EC50 (BJ [7]) was 11.5 µM (active). For the same molecule, the EC50 (BJ [8]) was > 150 µM (inconclusive), the EC50 [9] was 4.09 µM (inconclusive) and the EC50 (HT-1080) was > 50 µM (not active). For the same molecule, the EC50 [10] was 8.39 µM (active), the EC50 (BJ [11]) was 7.86 µM (active) and the IC50 [12] was > 100 µM (not active). The EC50 [13] was 1.07 µM (active).
For Cc1cc(-c2csc(N)n2)c(C)n1CCc1ccccc1, the EC50 [14] was 0.449 µM (active), the EC50 [6] was 0.38 µM (active) and the EC50 (cells [15]) was > 29.9 µM (inactive). For the same molecule, the IC50 (cells [16]) was > 29.9 µM (inactive), the EC50 (HT-1080) was > 50 µM (not active) and the IC50 [17] was 3.8 µM (active).
For Cc1ccc(Nc2nnc(SC(C)C(=O)Nc3c(C)n(C)n(-c4ccccc4)c3=O)s2)cc1 (stereo unspecified), the IC50 (Leucine aminopeptidase) was 3.86 µM (active), the IC50 (Procathepsin L) was > 59.6 µM (not active) and the IC50 (Aspartyl aminopeptidase) was > 73.5 µM (not active).
With O=C(O)CCSc1nc2cc(Br)ccc2[nH]1 the EC50 [18] was > 20 µM (not active) and the EC50 [19] was > 20 µM (not active).
With CC1CCc2c(sc3ncn(CC(=O)N=Nc4c(O)[nH]c5ccccc45)c(=O)c23)C1 (stereo unspecified) the “Absolute IC50 (XBP1)” value (X-box-binding protein 1) was 10 µM.
